Test results: ChEMBL document CHEMBL3137667, “[Drug-induced liver injury; fourteenth updated edition of the bibliographic database of liver injuries and related drugs]” (Gastroenterol Clin Biol, 2004)

How the values were obtained:
[1] = human
[2] = human; remark: listed apart in the source
[3] = human; remark: listed apart in the source
[4] = Highest frequency of acute liver toxicity observed during clinical trials, expressed as a percentage. [column '% AIGUE' in source]; details: human
[5] = Highest frequency of moderate liver toxicity observed during clinical trials, expressed as a percentage. [column '% BIOL' in source]; details: human
[6] = human; remark: listed apart in the source
[7] = human, serum, 4383 h
[8] = human; remark: listed apart in the source
[9] = Times to onset, minimal and maximal, observed in the indexed observations. [column 'DELAI' in source]; details: human
[10] = human; remark: listed apart in the source
[11] = human; remark: listed apart in the source
[12] = human; remark: listed apart in the source
[13] = human, serum
[14] = human, serum; remark: listed apart in the source
[15] = human; remark: listed apart in the source
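For Hepatotoxicity (association with vascular disease) in this document: count of indexed literature references reporting vascular liver injury in humans, e.g. peliosis hepatitis, hepatic veno-occlusive disease or Budd-Chiari syndrome.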
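For Hepatotoxicity (benign tumour) in this document: value is a count of indexed literature references citing a benign tumour confirmed by histopathology.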
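For Hepatotoxicity (choleostasis) in this document: human cholestatic liver injury, shown by histopathology or by peak ALT or AST elevation over alkaline phosphatase ratio below 2, value counts indexed literature reports.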
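For Hepatotoxicity (chronic liver disease) in this document: chronic liver injury confirmed by histopathology or persistently raised serum aminotransferase activity beyond 6 months, value given as the count of indexed literature references.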
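For Hepatotoxicity (cirrhosis) in this document: value is a count of indexed literature references reporting cirrhosis confirmed by histopathology.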
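For Hepatotoxicity (cytolytic) in this document: human cytolytic liver injury, shown by histopathology or by a ratio above 5 of peak ALT or AST elevation to alkaline phosphatase elevation, value counts indexed references.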
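For Hepatotoxicity (granulomatous hepatitis) in this document: value is a count of indexed literature references reporting granulomatous liver disease confirmed by histopathology.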
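For Hepatotoxicity (malignant tumour) in this document: malignant tumour confirmed by histopathology, value gives the count of indexed literature references reporting it.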
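For Hepatotoxicity (severe hepatitis) in this document: human clinical data: severe hepatitis, meaning potentially life-threatening liver failure or clinically observed cases, the value counts how many indexed literature references report it.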
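For Hepatotoxicity (steatosis) in this document: steatosis confirmed by histopathology, value is the count of indexed references.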

Structure (SMILES) | Hepatotoxicity (malignant tumour) [3] | Hepatotoxicity (chronic liver disease) [7] | Hepatotoxicity (association with vascular disease) [8] | Hepatotoxicity (time to onset) [9] | Hepatotoxicity (cirrhosis) [10] | Hepatotoxicity (benign tumour) [11] | Hepatotoxicity (acute) [13] | Hepatotoxicity (moderate) [14] | Hepatotoxicity (steatosis) [15] | Hepatotoxicity (severe hepatitis) [1] | Hepatotoxicity (choleostasis) [2] | Hepatotoxicity (acute) [4] | Hepatotoxicity (moderate) [5] | Hepatotoxicity (cytolytic) [6] | Hepatotoxicity (granulomatous hepatitis) [12] | further results
Cc1ccc(-c2cc(C(F)(F)F)nn2-c2ccc(S(N)(=O)=O)cc2)cc1 [CELECOXIB] | 0 | 0 | 0 | 2 days - 3 weeks | 0 | 0 | 8 | 3 | 0 |  |  |  |  |  |  | Hepatotoxicity (severe hepatitis) ([1]; Liver): 0; Hepatotoxicity (choleostasis) ([2]; Liver): 4; Hepatotoxicity (acute) ([4]; Liver): 0%; Hepatotoxicity (moderate) ([5]; Liver): 2%; Hepatotoxicity (cytolytic) ([6]; Liver): 5; Hepatotoxicity (granulomatous hepatitis) ([12]; Liver): 0
CN(C)CC(Oc1ccccc1)Oc1ccccc1 [MEDIFOXAMINE] | 0 | 0 | 0 | 6 days | 0 | 0 | 1 | 0 | 0 | 2 | 0 | 0% | 0% | 1 | 0 | 
Clc1ccc(COC(Cn2ccnc2)c2ccc(Cl)cc2Cl)cc1 (stereo not given) [ECONAZOLE] | 0 | 0 | 0 | 4 months | 0 | 0 | 1 | 1 | 0 | 0 | 0 | 0% | 0% | 0 | 0 | 
COc1ccc(CCN(C)CCCC2(c3ccc(OC)c(OC)c3)S(=O)(=O)CCCS2(=O)=O)cc1OC | 0 | 0 | 0 | 1 month | 0 | 0 | 1 | 2 | 0 | 0 | 1 | 0% | 6.7% | 0 | 0 | 
CCN(CC)CCn1c(-c2ccccc2)noc1=N [IMOLAMINE] | 0 | 1 | 0 | 2 months | 0 | 0 | 0 | 0 | 0 | 0 | 0 | 0% | 0% | 0 | 0 | 
CC(=O)Nc1ccc(OC(=O)c2ccccc2OC(C)=O)cc1 [BENORILATE] | 0 | 0 | 0 | 3 weeks | 0 | 0 | 2 | 0 | 0 | 1 | 0 | 0% | 0% | 2 | 0 | 
CCCCN/C(=C1/C=C(Cl)C=CC1=O)c1ccccc1Cl | 0 | 0 | 0 | 1 month | 0 | 0 | 1 | 1 | 0 | 0 | 0 | 0% | 54.5% | 0 | 0 | 
